How the values were obtained:
patients with ASD = assay: open-label observational trial, eight weeks, response scored using the ABC-C scale; format: in vivo, human
Description: In an open-label observational trial by an investigator, 11 patients with ASD were treated for eight weeks with molindone starting at 5 mg/day and the dosage increased by the patient and caregiver in 5 mg increments as tolerated by the subjects up to a maximum dose of 25 mg/day or until amelioration of the aberrant behaviors was seen. Patient response was scored using the ABC-C scale.

[1] = pharmacokinetic study of equivalent doses by gastric absorption compared to sublingual absorption; format: in vivo
Description: A study of equivalent doses of molindone administered by gastric absorption compared to sublingual absorption. […] Molindone is primarily, if not exclusively, metabolized by the liver (hepatic metabolism). The first metabolite of molindone obtained by liver metabolism is 3-ethyl-2-(hydroxymethyl)-5-[(morpholin-4-yl)methyl]-1,5,6,7tetrahydro-4H-indol-4-one. The level of this metabolite was also measured at the Cmax of the sublingual and gastric dosing regimens.

[2] = N=11, Week 8 vs baseline, p <0.0001

somnolence during the course of the study (patients with ASD; ASD patients, eight weeks): none complained of increased somnolence
T1/2 ([1]; non-gastric dosing regimen compared to gastric dosing): longer
area under the curve (AUC) ([1]; sublingual dosing compared to gastric dosing): better
Cmax (highest plasma concentration of the drug) ([1]; sublingual dosing compared to gastric dosing, equivalent doses, FIG. 1): higher
Compound: CCc1c(C)[nH]c2c1C(=O)C(CN1CCOCC1)CC2 (stereo not drawn) [molindone, 3-ethyl-2-methyl-5-(morpholin-4-ylmethyl)-1,5,6,7-tetrahydroindol-4-one]
body weight during the course of therapy (subjective responses from caregivers and subjects) (patients with ASD; ASD patients, eight weeks): noticeable and desirable weight loss
ABC-C Total Score (0-174), Decrease from baseline (%) (patients with ASD; N=11, Week 8 vs baseline, p 0.0001): 69.9%
ABC-C Inappropriate speech (0-12), Decrease from baseline (%) (patients with ASD; N=11, Week 8 vs baseline, p 0.0048): 77%
ABC-C Lethargic/Withdrawn (0-48), Decrease from baseline (%) (patients with ASD; N=11, Week 8 vs baseline, p 0.0069): 63.2%
ABC-C Stereotypy (0-21), Decrease from baseline (%) (patients with ASD; N=11, Week 8 vs baseline, p 0.0081): 72.8%
ABC-C Hyperactivity/Noncompliance (0-48), Decrease from baseline (%) (patients with ASD; [2]): 62.4%
ABC-C Irratability (0-45), Decrease from baseline (%) (patients with ASD; [2]): 76.6%
ABC-C Scale Mean Score, Inappropriate speech (0-12), Week 8 (patients with ASD; N=11 ASD patients, 5 up to 25 mg/day, baseline 9.6, p 0.0048): 2.2
ABC-C Scale Mean Score, Stereotypy (0-21), Week 8 (patients with ASD; N=11 ASD patients, 5 up to 25 mg/day, baseline 11.8, p 0.0081): 3.2
ABC-C Scale Mean Score, Lethargic/Withdrawn (0-48), Week 8 (patients with ASD; N=11 ASD patients, 5 up to 25 mg/day, baseline 16.5, p 0.0069): 6.4
ABC-C Scale Mean Score, Hyperactivity/Noncompliance (0-48), Week 8 (patients with ASD; N=11 ASD patients, 5 up to 25 mg/day, baseline 29.8, p <0.0001): 11.2
ABC-C Scale Mean Score, Irratability (0-45), Week 8 (patients with ASD; N=11 ASD patients, 5 up to 25 mg/day, baseline 35.6, p <0.0001): 8.3
ABC-C Scale Mean Score, Total Score (0-174), Week 8 (patients with ASD; N=11 ASD patients, 5 up to 25 mg/day, baseline 103.3, p 0.0001): 31.3
reduction of symptoms in all five ABC-C categories, including stereotypy (patients with ASD; during the eight-week study, all p values less than 0.05): significant improvement
